Values of other authors as cited in US20090220611A1, “Microparticles With Modified Release of At Least One Active Principle and Oral Pharmaceutical Form Comprising Same” (priority 2005, published 2009).

Settings: qualitative statement

**Q.** For Nc1nc2c(ncn2COCCO)c(=O)[nH]1 [aciclovir], which water solubility is on record?
**A.** sparingly water-soluble
